Consider three molecules from patent US20210196817A1, “Compositions and Methods for Selectively Modulating Tregs” (Augusta University Research Institute, Inc., priority 2014, published 2021).

Assay [1] relates to Tconvs (CD4+Foxp3-). Kind of assay: pAkt (S473) phosphorylation by flow cytometry in activated Tconvs. Type of assay: cell-based, mouse. The conditions noted are these: 10 nM, 100 nM and 1 μM, 72 hrs, anti-CD3/anti-CD28/IL-2 activated. As for the experimental part: (§1) Negative selection of CD4 T-cells from splenocytes was performed using magnetic bead separation technique according to the manufacturer's recommendations R&D Systems (Minneapolis, Minn.). Tregs (CD4+Foxp3+) and Tconvs (CD4+Foxp3-) were sorted from enriched CD4 cells using FACS ARIA II cell sorter (BD Biosciences).
(§2) Sorted Tregs and Tconvs were labeled with VCT according to the manufacturer's protocol (Life Technologies, NY). Cells stimulated with and without inhibitors in the presence of 10 μg/mL plate-bound anti-CD3, 2.5 μg/mL soluble anti-CD28, and 100 IU/mL IL-2. After 3 days, cells were stained with live/dead cell stain (Life Technologies, NY), fixed, permeabelized and stained with anti-CD4-FITC and anti-Foxp3-AlexaFluor 647. For pAkt (S473) and pS6 analysis, the signal was amplified by using a biotin-conjugated donkey anti-rabbit antibody (BD Biosciences) and Streptavidin-PE. After staining, cells were acquired on LSRII SORP flow cytometer and analyzed using FlowJo software (Tree Star).
(§3) The phosphorylation status of Akt (S473) in activated Tregs and Tconvs was measured by flow cytometry after treatment with titrated concentrations of the individual inhibitors. The concentrations choice was based on previously published IC50 of the inhibitors (Table 1) and the in-vitro viability of T-cells. Concentrations that maintain more than 70% viability of the T-cells were used.
In general terms: In flow cytometry, cells or beads pass a laser one at a time.

In assay [2] the test system is Tregs (CD4+Foxp3+). Put plainly: Continuous inhibition of PI3Kδ in vivo: Tregs, CD4 and CD8 cells, incl. tumor infiltration.
Assay [3] deals with Tregs (CD4+Foxp3+). Kind of assay: pAkt (S473) phosphorylation by flow cytometry in activated Tregs. The class given is cell-based, mouse. The conditions noted are these: 10 nM, 100 nM and 1 μM, 72 hrs, anti-CD3/anti-CD28/IL-2 activated. As for the experimental part: as §1, §2, §3
A further assay deals with PI3Kγ (Homo sapiens, UniProt P48736). The conditions noted are these: previously published IC50; cited from earlier work.
PI3Kγ, sequence (P48736 whole entry, species assumed): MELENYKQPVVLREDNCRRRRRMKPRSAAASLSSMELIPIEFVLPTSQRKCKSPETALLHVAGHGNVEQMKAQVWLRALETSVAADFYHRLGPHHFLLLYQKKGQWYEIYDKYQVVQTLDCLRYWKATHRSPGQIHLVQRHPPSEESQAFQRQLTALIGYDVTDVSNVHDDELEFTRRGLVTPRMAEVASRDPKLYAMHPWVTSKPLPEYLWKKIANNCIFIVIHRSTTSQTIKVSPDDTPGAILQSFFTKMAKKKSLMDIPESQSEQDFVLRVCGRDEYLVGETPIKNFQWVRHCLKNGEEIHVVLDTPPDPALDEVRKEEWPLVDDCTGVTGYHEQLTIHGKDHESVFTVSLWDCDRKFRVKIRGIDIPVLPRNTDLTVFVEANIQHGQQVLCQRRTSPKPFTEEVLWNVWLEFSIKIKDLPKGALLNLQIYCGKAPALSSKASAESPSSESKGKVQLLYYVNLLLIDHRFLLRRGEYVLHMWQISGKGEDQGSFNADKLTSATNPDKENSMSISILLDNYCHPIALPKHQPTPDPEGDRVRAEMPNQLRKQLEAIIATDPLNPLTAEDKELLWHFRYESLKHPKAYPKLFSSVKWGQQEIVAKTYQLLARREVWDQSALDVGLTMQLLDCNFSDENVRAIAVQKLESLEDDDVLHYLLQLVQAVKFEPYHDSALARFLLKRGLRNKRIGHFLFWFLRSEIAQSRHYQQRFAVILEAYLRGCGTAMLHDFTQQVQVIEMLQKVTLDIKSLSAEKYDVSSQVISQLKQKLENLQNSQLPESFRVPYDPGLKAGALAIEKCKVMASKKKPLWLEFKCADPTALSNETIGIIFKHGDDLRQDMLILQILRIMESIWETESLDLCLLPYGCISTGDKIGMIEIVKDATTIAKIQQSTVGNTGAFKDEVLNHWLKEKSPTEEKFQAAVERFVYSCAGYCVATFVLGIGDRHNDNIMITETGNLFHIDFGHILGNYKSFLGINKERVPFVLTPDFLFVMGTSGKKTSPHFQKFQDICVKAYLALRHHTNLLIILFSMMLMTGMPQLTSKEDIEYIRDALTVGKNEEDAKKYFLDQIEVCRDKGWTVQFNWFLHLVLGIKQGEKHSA
Assay [4] has as its system Tregs (CD4+Foxp3+). Kind of assay: Violet Cell Trace proliferation assay, Tregs. The class given is cell-based, mouse. The conditions noted are these: all tested concentrations, 3 days, anti-CD3/anti-CD28/IL-2.
Protocol: (§4) Sorted Tregs and Tconvs were labeled with VCT according to the manufacturer's protocol (Life Technologies, NY). Cells stimulated with and without inhibitors in the presence of 10 μg/mL plate-bound anti-CD3, 2.5 μg/mL soluble anti-CD28, and 100 IU/mL IL-2. After 3 days, cells were stained with live/dead cell stain (Life Technologies, NY), fixed, permeabelized and stained with anti-CD4-FITC and anti-Foxp3-AlexaFluor 647. […] After staining, cells were acquired on LSRII SORP flow cytometer and analyzed using FlowJo software (Tree Star).
In the next assay the target is PI3Kα (Homo sapiens, UniProt P42336). The conditions noted are these: previously published IC50; cited from earlier work.
PI3Kα, sequence (P42336 whole entry, species assumed): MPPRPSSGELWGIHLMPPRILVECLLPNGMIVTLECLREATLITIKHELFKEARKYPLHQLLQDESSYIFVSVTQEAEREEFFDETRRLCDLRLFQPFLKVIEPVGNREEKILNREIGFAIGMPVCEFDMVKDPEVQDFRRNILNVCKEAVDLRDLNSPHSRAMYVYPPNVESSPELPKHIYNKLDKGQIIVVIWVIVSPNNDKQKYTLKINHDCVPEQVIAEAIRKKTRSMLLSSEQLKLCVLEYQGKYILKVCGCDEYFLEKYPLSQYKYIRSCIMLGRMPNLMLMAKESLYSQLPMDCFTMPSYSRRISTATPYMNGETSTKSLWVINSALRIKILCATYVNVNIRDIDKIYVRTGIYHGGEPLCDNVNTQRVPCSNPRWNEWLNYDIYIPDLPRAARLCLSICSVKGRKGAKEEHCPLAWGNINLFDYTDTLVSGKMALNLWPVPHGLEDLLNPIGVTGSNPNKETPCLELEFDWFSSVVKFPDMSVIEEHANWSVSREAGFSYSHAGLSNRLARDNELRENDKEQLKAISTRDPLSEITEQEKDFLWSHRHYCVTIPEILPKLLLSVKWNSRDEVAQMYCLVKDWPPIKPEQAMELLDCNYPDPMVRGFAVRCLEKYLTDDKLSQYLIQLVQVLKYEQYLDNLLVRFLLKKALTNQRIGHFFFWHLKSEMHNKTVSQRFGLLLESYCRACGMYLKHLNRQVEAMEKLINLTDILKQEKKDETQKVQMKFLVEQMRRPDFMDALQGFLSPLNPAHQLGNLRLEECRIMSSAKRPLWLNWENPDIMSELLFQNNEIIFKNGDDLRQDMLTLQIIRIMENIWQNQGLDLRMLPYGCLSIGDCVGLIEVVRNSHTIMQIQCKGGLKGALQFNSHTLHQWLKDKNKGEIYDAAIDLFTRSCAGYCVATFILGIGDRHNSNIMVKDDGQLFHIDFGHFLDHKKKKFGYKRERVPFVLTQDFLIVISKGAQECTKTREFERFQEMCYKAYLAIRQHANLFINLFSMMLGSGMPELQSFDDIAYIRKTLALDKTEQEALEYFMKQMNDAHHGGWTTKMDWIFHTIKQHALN
The next assay has as its target PI3Kδ (Homo sapiens, UniProt O00329). The conditions noted are these: previously published IC50; cited from earlier work.
The test system of assay [5] is Tconvs (CD4+Foxp3-). Kind of assay: Violet Cell Trace proliferation assay, Tconvs. The class given is cell-based, mouse. The conditions noted are these: all tested concentrations, 3 days, anti-CD3/anti-CD28/IL-2.
Protocol: as §4

Broadly, the IC50 is the concentration needed to halve the response being measured.

PI3Kδ, sequence (O00329 whole entry): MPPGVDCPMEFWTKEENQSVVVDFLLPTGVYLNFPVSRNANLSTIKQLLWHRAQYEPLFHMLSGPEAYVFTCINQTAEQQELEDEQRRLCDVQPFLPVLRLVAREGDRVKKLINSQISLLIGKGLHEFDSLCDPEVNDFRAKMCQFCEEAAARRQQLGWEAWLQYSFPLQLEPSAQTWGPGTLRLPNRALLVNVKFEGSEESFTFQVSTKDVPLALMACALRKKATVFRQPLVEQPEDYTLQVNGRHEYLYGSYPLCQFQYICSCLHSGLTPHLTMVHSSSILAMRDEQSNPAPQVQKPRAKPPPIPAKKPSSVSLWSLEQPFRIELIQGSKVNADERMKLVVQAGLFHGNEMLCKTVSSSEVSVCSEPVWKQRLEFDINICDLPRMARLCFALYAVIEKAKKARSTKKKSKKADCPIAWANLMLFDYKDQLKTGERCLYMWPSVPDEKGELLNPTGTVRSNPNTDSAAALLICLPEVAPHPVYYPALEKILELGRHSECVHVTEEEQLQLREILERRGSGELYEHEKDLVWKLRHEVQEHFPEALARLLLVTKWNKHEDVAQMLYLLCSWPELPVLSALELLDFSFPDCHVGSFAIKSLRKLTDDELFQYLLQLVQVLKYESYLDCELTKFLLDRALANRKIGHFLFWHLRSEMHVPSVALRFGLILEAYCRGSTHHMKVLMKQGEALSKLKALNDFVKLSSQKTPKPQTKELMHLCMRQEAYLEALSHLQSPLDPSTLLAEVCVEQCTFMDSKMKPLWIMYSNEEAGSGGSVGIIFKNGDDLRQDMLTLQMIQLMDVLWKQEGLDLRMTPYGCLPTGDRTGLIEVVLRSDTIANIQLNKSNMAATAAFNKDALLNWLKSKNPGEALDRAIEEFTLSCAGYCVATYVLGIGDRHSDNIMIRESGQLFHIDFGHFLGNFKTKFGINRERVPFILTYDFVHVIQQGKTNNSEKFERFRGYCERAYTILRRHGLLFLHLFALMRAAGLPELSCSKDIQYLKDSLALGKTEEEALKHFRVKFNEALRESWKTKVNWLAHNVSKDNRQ
PI3Kδ, sequence (P27986 whole entry partner): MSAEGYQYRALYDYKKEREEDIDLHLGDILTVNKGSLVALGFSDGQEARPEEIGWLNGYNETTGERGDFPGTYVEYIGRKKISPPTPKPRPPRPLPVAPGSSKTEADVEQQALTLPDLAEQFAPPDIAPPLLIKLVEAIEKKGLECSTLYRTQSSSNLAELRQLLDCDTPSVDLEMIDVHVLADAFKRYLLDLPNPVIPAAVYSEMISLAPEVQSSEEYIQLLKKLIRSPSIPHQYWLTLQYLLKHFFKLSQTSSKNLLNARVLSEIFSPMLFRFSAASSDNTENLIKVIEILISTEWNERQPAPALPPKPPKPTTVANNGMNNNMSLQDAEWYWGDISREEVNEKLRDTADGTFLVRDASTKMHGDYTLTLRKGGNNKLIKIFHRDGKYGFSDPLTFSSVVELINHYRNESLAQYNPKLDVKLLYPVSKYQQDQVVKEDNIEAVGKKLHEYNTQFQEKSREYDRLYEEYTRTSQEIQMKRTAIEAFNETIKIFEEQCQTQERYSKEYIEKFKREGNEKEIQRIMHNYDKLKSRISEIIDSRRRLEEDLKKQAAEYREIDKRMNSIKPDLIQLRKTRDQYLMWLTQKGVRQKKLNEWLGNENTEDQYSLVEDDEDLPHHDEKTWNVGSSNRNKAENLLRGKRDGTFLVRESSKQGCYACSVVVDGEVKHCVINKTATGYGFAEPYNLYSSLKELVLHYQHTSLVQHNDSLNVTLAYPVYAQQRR

For the molecule `CC[C@H](Nc1ncnc2[nH]cnc12)c1nc2cccc(F)c2c(=O)n1-c1ccccc1` [CAL-101], in the assay on Tconvs (CD4+Foxp3-) [1], the “inhibition of pAkt (S473) in Tconvs” value is reported as “no effect”. Moreover, in the assay on Tregs (CD4+Foxp3+) [2] (10 mg/kg, continuous treatment), the “CD4 and CD8 cells in tumor (per 10^6 of CD45+CD3+)” value was “no effect”. Also, in the assay on Tregs (CD4+Foxp3+) [2] (day 26 vs day 12 baseline and vehicle), the “CD4 and CD8 cells under continuous treatment” value is “no effect”.
On to `Cc1nc(NC(=O)N2CCC[C@H]2C(N)=O)sc1-c1csc(C(C)(C)C)n1` [A66], for which the “inhibition of pAkt (S473) in Tregs” value in the assay on Tregs (CD4+Foxp3+) [3] was “No remarkable inhibition”. Besides, in the assay with Tconvs (CD4+Foxp3-) [1], the “inhibition of pAkt (S473) in Tconvs” value is recorded as “No remarkable inhibition”.
For the molecule `Cc1cc(C(C)Nc2ccccc2)c2nc(N3CCOCC3)cc(=O)n2c1` (stereo not drawn) [TGX-221], the IC50 is over 10 µM at PI3Kγ, 5 µM at PI3Kα and 0.1 µM on PI3Kδ. Moreover, the “inhibition of pAkt (S473) in Tregs” value in the assay with Tregs (CD4+Foxp3+) [3] is “No remarkable inhibition”. Also, the “inhibition of proliferation of Tregs” value in the assay on Tregs (CD4+Foxp3+) [4] is recorded as “no inhibition”. The “inhibition of pAkt (S473) in Tconvs” value in the assay on Tconvs (CD4+Foxp3-) [1] is “No remarkable inhibition”. The “inhibition of proliferation of Tconvs” value in the assay on Tconvs (CD4+Foxp3-) [5] is recorded as “no inhibition”.
